Assay results published in BindingDB's records for doi:10.1016/j.ejmech.2018.10.033 (Key Laboratory of Molecular Pharmacology and Drug …, 2019).

How the values were obtained:
[1] = Reversal of P-gp-mediated drug resistance in human KBV cells assessed as potentiation of paclitaxel-induced cytotoxicity by measuring paclitaxel IC50 at 10 uM after 48 hrs by MTT assay (Rvb = 1396.57 uM)
[2] = Reversal of P-gp-mediated drug resistance in human KBV cells assessed as potentiation of paclitaxel-induced cytotoxicity by measuring paclitaxel IC50 at 5 uM after 24 hrs by MTT assay (Rvb = 3837.57 uM)
[3] = Reversal of P-gp-mediated drug resistance in human KBV cells assessed as potentiation of paclitaxel-induced cytotoxicity by measuring paclitaxel IC50 at 5 uM after 48 hrs by MTT assay (Rvb = 1396.57 uM)
[4] = Reversal of P-gp-mediated drug resistance in human KBV cells assessed as potentiation of paclitaxel-induced cytotoxicity by measuring paclitaxel IC50 at 10 uM after 72 hrs by MTT assay (Rvb = 398.34 +/- 0.58 uM)
[5] = Reversal of P-gp-mediated drug resistance in human KBV cells assessed as potentiation of paclitaxel-induced cytotoxicity by measuring paclitaxel IC50 at 10 uM after 24 hrs by MTT assay (Rvb = 3837.57 uM)
[6] = Reversal of P-gp-mediated drug resistance in human KBV cells assessed as potentiation of paclitaxel-induced cytotoxicity by measuring paclitaxel IC50 at 5 uM after 72 hrs by MTT assay (Rvb = 398.34 +/- 0.58 uM)
[7] = Reversal of P-gp-mediated drug resistance in human KBV cells assessed as potentiation of paclitaxel-induced cytotoxicity by measuring paclitaxel IC50 at 10 uM

Work on `CN(C)CCCOC(=O)[C@]12CCC(C)(C)C[C@H]1C1=CC[C@@H]3[C@@]4(C)Cc5nccnc5[C@@](C)(CO)[C@@H]4CC[C@@]3(C)[C@]1(C)CC2` yielded an IC50 [1] of 17.2 nM, an IC50 [2] of 49.8 nM and an IC50 [3] of 21.2 nM. It also gave an IC50 [4] of 1.59 nM, an IC50 [5] of 35 nM and an IC50 [6] of 12.3 nM.

With `CC1(C)CC[C@]2(C(=O)OCc3ccccc3)CC[C@]3(C)C(=CC[C@@H]4[C@@]5(C)Cc6nccnc6[C@@](C)(CO)[C@@H]5CC[C@]43C)[C@@H]2C1` the IC50 [7] was 2.4 nM.
